Assay results published in patent US5916905A, “2,3-substituted pyridines for the treatment of inflammation” (G. D. Searle & Co., priority 1997, dated 1999).

What was measured:
COX-1 [1] = target: T1, COX-1 (Homo sapiens, UniProt P23219); assay: COX-1 activity in vitro, recombinant human enzyme (PGE2 ELISA); assay type: biochemical; conditions: human (h); 10 μM arachidonic acid, 10-20 min pre-incubation; read-out: COX-1 ID50
T1 construct: A 2.0 kb fragment containing the coding region; made in house; host or cells: SF9 insect cells (baculovirus, pVL1393)
Method: (§1) The COX-2 inhibition activity of the compounds of this invention illustrated in the Examples was determined by the following methods.
(§2) Recombinant COX-1 and COX-2 were prepared as described by Gierse et al, [J. Biochem., 305, 479-84 (1995)]. A 2.0 kb fragment containing the coding region of either human or murine COX-1 or human or murine COX-2 was cloned into a BamH1 site of the baculovirus transfer vector pVL1393 (Invitrogen) to generate the baculovirus transfer vectors for COX-1 and COX-2 in a manner similar to the method of D. R. O'Reilly et al (Baculovirus Expression Vectors: A Laboratory Manual (1992)). Recombinant baculoviruses were isolated by transfecting 4 μg of baculovirus transfer vector DNA into SF9 insect cells (2×10^8) along with 200 ng of linearized baculovirus plasmid DNA by the calcium phosphate method. See M. D. Summers and G. E. Smith, A Manual of Methods for Baculovirus Vectors and Insect Cell Culture Procedures, Texas Agric. Exp. Station Bull. 1555 (1987). Recombinant viruses were purified by three rounds of plaque purification and high titer (10^7 -10^8 pfu/ml) stocks of virus were prepared. For large scale production, SF9 insect cells were infected in 10 liter fermentors (0.5×10^6 /ml) with the recombinant baculovirus stock such that the multiplicity of infection was 0.1. After 72 hours the cells were centrifuged and the cell pellet homogenized in Tris/Sucrose (50 mM: 25%, pH 8.0) containing 1% 3-[(3-cholamidopropyl)dimethylammonio]-1-propanesulfonate (CHAPS). The homogenate was centrifuged at 10,000×G for 30 minutes, and the resultant supernatant was stored at -80° C. before being assayed for COX activity.
(§3) b. Assay for COX-1 and COX-2 activity COX activity was assayed as PGE2 formed/μg protein/time using an ELISA to detect the prostaglandin released. CHAPS-solubilized insect cell membranes containing the appropriate COX enzyme were incubated in a potassium phosphate buffer (50 mM, pH 8.0) containing epinephrine, phenol, and heme with the addition of arachidonic acid (10 μM). Compounds were pre-incubated with the enzyme for 10-20 minutes prior to the addition of arachidonic acid. Any reaction between the arachidonic acid and the enzyme was stopped after ten minutes at 37° C./room temperature by transferring 40 μl of reaction mix into 160 μl ELISA buffer and 25 μM indomethacin. The PGE2 formed was measured by standard ELISA technology (Cayman Chemical).

carrageenan foot edema = assay: Rat Carrageenan Foot Pad Edema Test; assay type: in vivo, rat (male Sprague-Dawley); conditions: @ 10 mg/kg body weight, oral, 1 h before carrageenan; read 3 h after injection
Method: Rat Carrageenan Foot Pad Edema Test
Male Sprague-Dawley rats were selected in each group so that the average body weight was as close as possible. Rats were fasted with free access to water for over sixteen hours prior to the test. […] One hour later a subplantar injection of 0.1 mL of 1% solution of carrageenan/sterile 0.9% saline was administered and the volume of the injected foot was measured with a displacement plethysmometer connected to a pressure transducer with a digital indicator. Three hours after the injection of the carrageenan, the volume of the foot was again measured.

COX-2 [2] = target: T2, COX-2 (Homo sapiens, UniProt P35354); assay: COX-2 activity in vitro, recombinant human enzyme (PGE2 ELISA); assay type: biochemical; conditions: human (h); 10 μM arachidonic acid, 10-20 min pre-incubation; read-out: COX-2 ID50
T2 construct: A 2.0 kb fragment containing the coding region; made in house; host or cells: SF9 insect cells (baculovirus, pVL1393)
T2 sequence (P35354 18-604): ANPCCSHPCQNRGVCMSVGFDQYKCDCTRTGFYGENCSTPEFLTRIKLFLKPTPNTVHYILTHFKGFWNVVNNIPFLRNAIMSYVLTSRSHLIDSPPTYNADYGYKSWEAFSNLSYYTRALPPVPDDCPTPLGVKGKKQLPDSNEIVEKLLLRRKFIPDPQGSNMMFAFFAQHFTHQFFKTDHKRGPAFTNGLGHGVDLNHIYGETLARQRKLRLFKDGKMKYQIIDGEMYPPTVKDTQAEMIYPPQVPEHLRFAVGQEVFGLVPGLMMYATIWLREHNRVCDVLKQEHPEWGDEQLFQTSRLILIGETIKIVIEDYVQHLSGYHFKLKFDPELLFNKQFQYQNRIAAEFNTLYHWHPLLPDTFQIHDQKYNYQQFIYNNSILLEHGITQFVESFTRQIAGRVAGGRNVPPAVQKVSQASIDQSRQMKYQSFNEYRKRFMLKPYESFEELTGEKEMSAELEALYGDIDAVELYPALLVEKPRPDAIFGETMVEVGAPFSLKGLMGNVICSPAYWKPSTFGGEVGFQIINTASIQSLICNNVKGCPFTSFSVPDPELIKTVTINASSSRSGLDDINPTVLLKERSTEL
Method: as §1, §2, §3

COX-1 [3] = target: T3, COX-1 (Mus musculus, UniProt P22437); assay: COX-1 activity in vitro, recombinant murine enzyme (PGE2 ELISA); assay type: biochemical; conditions: murine (m); 10 μM arachidonic acid, 10-20 min pre-incubation; read-out: COX-1 ID50
T3 construct: A 2.0 kb fragment containing the coding region; made in house; host or cells: SF9 insect cells (baculovirus, pVL1393)
T3 sequence (P22437 27-602): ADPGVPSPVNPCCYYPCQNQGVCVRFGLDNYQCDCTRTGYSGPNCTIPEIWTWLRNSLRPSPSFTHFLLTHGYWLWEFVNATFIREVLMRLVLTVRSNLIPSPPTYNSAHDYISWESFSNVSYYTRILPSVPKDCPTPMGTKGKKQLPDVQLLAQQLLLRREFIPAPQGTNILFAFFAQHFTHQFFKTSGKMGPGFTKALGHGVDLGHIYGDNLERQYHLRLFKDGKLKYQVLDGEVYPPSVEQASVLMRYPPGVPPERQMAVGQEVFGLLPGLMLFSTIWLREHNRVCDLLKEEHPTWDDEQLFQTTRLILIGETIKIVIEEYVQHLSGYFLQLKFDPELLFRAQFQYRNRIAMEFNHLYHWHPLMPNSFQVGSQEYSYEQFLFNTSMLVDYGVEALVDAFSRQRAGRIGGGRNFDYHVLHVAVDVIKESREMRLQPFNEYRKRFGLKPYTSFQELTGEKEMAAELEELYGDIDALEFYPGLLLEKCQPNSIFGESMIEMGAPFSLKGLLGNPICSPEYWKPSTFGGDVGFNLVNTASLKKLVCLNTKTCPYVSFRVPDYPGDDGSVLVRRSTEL
Method: as §1, §2, §3

COX-2 [4] = target: T4, COX-2 (Mus musculus, UniProt Q05769); assay: COX-2 activity in vitro, recombinant murine enzyme (PGE2 ELISA); assay type: biochemical; conditions: murine (m); 10 μM arachidonic acid, 10-20 min pre-incubation; read-out: COX-2 ID50
T4 construct: A 2.0 kb fragment containing the coding region; made in house; host or cells: SF9 insect cells (baculovirus, pVL1393)
T4 sequence (Q05769 18-604): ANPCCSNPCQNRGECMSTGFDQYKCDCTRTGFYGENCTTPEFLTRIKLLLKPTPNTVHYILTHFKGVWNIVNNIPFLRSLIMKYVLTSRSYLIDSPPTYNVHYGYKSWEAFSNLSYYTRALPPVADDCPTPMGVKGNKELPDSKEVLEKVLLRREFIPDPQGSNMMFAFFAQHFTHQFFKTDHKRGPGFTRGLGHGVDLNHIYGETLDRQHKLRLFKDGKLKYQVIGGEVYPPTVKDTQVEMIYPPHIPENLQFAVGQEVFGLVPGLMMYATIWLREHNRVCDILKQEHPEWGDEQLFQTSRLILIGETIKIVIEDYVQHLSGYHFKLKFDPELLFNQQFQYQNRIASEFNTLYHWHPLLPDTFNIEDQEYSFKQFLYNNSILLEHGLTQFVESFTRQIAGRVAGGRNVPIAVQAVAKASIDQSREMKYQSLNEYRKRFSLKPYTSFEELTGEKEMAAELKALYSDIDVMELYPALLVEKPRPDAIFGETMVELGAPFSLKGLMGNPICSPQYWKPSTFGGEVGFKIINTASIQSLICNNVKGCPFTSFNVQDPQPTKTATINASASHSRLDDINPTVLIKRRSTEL
Method: as §1, §2, §3

T1 sequence (P23219 24-599): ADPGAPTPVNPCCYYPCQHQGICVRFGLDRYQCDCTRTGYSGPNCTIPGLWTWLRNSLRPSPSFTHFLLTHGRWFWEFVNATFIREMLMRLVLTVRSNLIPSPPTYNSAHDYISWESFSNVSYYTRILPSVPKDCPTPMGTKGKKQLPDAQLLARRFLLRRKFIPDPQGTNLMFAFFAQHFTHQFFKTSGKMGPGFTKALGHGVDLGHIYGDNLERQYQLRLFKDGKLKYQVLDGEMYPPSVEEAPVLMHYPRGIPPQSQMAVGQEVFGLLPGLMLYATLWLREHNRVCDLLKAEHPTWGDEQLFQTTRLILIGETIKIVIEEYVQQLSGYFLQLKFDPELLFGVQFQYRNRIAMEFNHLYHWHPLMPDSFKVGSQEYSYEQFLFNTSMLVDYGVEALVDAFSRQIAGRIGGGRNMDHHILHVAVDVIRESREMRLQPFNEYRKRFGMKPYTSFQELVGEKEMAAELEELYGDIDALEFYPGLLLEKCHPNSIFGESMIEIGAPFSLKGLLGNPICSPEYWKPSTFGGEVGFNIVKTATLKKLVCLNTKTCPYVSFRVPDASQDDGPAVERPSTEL

IC50 (COX-1 [3]) [µM]	IC50 (COX-2 [4]) [µM]	SMILES	IC50 (COX-1 [1]) [µM]	RAT PAW EDEMA % Inhibition (carrageenan foot edema) [%]	IC50 (COX-2 [2]) [µM]
–	–	COc1nc(-c2ccc(F)cc2)c(-c2ccc(S(C)(=O)=O)cc2)cc1C#N [Example 2, 6-(4-Fluorophenyl)-2-methoxy-5-[4-(methylsulfonyl)phenyl]-pyridine-3-carbonitrile]	> 100	16	0.2
> 10	< 0.1	CS(=O)(=O)c1ccc(-c2cc(C#N)c(-c3ccccc3)nc2-c2ccc(F)cc2)cc1 [Example 4, 6-(4-Fluorophenyl)-5-[4-(methylsulfonyl)phenyl]-2-phenyl-pyridine-3-carbonitrile]	–	18	–
> 100	0.1	CS(=O)(=O)c1ccc(-c2cc(C#N)c(Cl)nc2-c2ccc(F)cc2)cc1 [Example 7, 2-Chloro-6-(4-fluorophenyl)-5-[4-(methylsulfonyl)phenyl]-pyridine-3-carbonitrile]	–	–	–
> 100	26.2	CS(=O)(=O)c1ccc(-c2cc(C(N)=O)c(Cl)nc2-c2ccc(F)cc2)cc1 [Example 20, 2-Chloro-6-(4-fluorophenyl)-5-[4-(methylsulfonyl)phenyl]pyridine-3-carboxamide]	–	–	–
> 100	105	CS(=O)(=O)c1ccc(-c2cc(C(N)=O)cnc2-c2ccc(F)cc2)cc1 [Example 21, 6-(4-Fluorophenyl)-5-[4-(methylsulfonyl)phenyl]pyridine-3-carboxamide]	–	–	–
> 10	0.3	CS(=O)(=O)c1ccc(-c2cc(C#N)cnc2-c2ccc(F)cc2)cc1 [Example 22, 6-(4-Fluorophenyl)-5-[4-(methylsulfonyl)phenyl]pyridine-3-carbonitrile]	–	–	–
> 100	0.3	COc1nc(-c2ccc(S(C)(=O)=O)cc2)c(-c2ccc(F)cc2)cc1C#N [Example 23]	–	–	–

SMILES	IC50 (COX-1 [3]) [µM]	IC50 (COX-2 [4]) [µM]	IC50 (COX-1 [1]) [µM]	RAT PAW EDEMA % Inhibition (carrageenan foot edema) [%]	IC50 (COX-2 [2]) [µM]
CS(=O)(=O)c1ccc(-c2cc(C#N)c(Br)nc2-c2ccc(F)cc2)cc1 [Example 3, 2-Bromo-6-(4-fluorophenyl)-5-[4-(methylsulfonyl)phenyl]-pyridine-3-carbonitrile]	> 10	< 0.1	–	16	–
